Laboratory results published in paper PMC6152937 (Bioorganic & medicinal chemistry letters, 2018).

How the values were obtained:
[1] = target: α1A adrenoreceptor (Homo sapiens, UniProt P35348); experiment: Radio-ligand binding assay screen; settings: cloned receptor; considered inactive
[2] = target: α1B adrenoreceptor (Homo sapiens, UniProt P35368); experiment: Radio-ligand binding assay screen; settings: cloned receptor; considered inactive
[3] = target: α1Δ adrenoreceptor (Homo sapiens, UniProt P25100); experiment: Radio-ligand binding assay screen; settings: cloned receptor; considered inactive
[4] = target: α2A adrenoreceptor (Homo sapiens, UniProt P08913); experiment: Radio-ligand binding assay screen; settings: cloned receptor; considered inactive
[5] = target: β1 adrenoreceptor (Homo sapiens, UniProt P08588); experiment: Radio-ligand binding assay screen; settings: cloned receptor; considered inactive
[6] = target: β2 adrenoreceptor (Homo sapiens, UniProt P07550); experiment: Radio-ligand binding assay screen; settings: cloned receptor; considered inactive
[7] = target: β3 adrenoreceptor (Homo sapiens, UniProt P13945); experiment: Radio-ligand binding assay screen; settings: cloned receptor; considered inactive
[8] = target: DAT (Homo sapiens, UniProt Q01959); experiment: Radio-ligand binding assay screen; settings: cloned transporter; considered inactive
[9] = target: NET (Homo sapiens, UniProt P23975); experiment: Radio-ligand binding assay screen; settings: cloned transporter; considered inactive
[10] = target: SERT (Homo sapiens, UniProt P31645); experiment: Radio-ligand binding assay screen; settings: cloned transporter; considered inactive
Sequence of SERT (P31645 whole entry): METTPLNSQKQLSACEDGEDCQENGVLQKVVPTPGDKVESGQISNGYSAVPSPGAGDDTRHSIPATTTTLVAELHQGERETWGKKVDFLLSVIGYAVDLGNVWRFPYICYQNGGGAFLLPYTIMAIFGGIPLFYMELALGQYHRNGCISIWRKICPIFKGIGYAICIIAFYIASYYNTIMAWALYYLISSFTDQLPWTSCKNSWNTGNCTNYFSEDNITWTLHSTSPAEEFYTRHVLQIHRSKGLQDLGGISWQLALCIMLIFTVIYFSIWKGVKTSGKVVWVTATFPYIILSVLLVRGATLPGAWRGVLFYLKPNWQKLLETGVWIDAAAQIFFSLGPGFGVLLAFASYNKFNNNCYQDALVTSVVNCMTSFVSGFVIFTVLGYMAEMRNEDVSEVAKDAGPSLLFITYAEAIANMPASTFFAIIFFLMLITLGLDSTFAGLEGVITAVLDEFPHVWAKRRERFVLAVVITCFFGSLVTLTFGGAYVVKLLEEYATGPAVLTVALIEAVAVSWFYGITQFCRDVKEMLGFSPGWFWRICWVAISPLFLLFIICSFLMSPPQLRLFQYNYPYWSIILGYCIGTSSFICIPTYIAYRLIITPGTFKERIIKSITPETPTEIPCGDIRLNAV

[11] = target: Dopamine receptor D1 (Homo sapiens, UniProt P21728); experiment: Radio-ligand binding assay screen; settings: cloned receptor; considered inactive
[12] = target: Dopamine receptor D2 (Homo sapiens, UniProt P14416); experiment: Radio-ligand binding assay screen; settings: cloned receptor; considered inactive
[13] = target: Dopamine receptor D3 (Homo sapiens, UniProt P35462); experiment: Radio-ligand binding assay screen; settings: cloned receptor; considered inactive
Sequence of Dopamine receptor D3 (P35462 whole entry): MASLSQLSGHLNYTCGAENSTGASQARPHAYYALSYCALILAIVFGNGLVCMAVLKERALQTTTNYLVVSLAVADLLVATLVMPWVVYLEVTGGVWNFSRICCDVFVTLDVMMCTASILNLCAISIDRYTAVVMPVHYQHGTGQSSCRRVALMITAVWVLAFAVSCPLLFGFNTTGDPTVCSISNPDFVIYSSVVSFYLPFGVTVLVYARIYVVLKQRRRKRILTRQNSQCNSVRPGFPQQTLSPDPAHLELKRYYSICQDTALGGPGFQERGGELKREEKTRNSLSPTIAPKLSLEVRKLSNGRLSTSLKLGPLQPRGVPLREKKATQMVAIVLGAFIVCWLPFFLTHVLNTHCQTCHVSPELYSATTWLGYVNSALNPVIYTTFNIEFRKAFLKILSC

[14] = target: Dopamine receptor D4 (Homo sapiens, UniProt P21917); experiment: Radio-ligand binding assay screen; settings: cloned receptor; considered inactive
[15] = target: Dopamine receptor D5 (Homo sapiens, UniProt P21918); experiment: Radio-ligand binding assay screen; settings: cloned receptor; considered inactive
[16] = target: DOR (Homo sapiens, UniProt P41143); experiment: Radio-ligand binding assay screen; settings: cloned receptor; considered inactive
[17] = target: KOR (Homo sapiens, UniProt P41145); experiment: Radio-ligand binding assay screen; settings: cloned receptor; considered inactive
[18] = target: MOR (Homo sapiens, UniProt P35372); experiment: Radio-ligand binding assay screen; settings: cloned receptor; considered inactive
Sequence of MOR (P35372 whole entry): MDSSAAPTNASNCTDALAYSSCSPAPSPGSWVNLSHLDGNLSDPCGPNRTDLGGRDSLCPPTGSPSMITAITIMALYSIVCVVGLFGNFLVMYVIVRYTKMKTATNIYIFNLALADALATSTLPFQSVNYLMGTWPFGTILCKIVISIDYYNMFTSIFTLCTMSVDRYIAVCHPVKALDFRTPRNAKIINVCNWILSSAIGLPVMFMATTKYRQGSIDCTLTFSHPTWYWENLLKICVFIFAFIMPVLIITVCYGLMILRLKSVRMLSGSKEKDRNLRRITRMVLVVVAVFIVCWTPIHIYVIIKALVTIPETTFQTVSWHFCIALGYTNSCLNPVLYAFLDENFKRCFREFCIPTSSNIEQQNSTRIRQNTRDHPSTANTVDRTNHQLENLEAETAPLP

[19] = target: Histamine receptor H1 (Homo sapiens, UniProt P35367); experiment: Radio-ligand binding assay screen; settings: cloned receptor; considered inactive
[20] = target: Histamine receptor H2 (Homo sapiens, UniProt P25021); experiment: Radio-ligand binding assay screen; settings: cloned receptor; considered inactive
[21] = target: Histamine receptor H3 (Homo sapiens, UniProt Q9Y5N1); experiment: Radio-ligand binding assay screen; settings: cloned receptor; considered inactive
[22] = target: Histamine receptor H4 (Homo sapiens, UniProt Q9H3N8); experiment: Radio-ligand binding assay screen; settings: cloned receptor; considered inactive
[23] = target: Muscarinic receptor M1 (Homo sapiens, UniProt P11229); experiment: Radio-ligand binding assay screen; settings: cloned receptor; considered inactive
Sequence of Muscarinic receptor M1 (P11229 whole entry): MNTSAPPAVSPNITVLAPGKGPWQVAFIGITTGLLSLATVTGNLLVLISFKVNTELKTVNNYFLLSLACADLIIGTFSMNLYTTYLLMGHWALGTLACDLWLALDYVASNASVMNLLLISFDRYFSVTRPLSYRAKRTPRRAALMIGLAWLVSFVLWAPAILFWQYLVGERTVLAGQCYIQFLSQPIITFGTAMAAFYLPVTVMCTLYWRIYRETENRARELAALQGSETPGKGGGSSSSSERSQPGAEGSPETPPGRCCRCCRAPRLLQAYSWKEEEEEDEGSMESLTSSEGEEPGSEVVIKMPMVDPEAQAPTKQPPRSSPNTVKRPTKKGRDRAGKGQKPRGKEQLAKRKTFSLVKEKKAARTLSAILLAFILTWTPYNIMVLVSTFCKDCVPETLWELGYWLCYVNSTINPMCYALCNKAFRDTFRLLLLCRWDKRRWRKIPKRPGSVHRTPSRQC

[24] = target: Muscarinic receptor M2 (Homo sapiens, UniProt P08172); experiment: Radio-ligand binding assay screen; settings: cloned receptor; considered inactive
[25] = target: Muscarinic receptor M3 (Homo sapiens, UniProt P20309); experiment: Radio-ligand binding assay screen; settings: cloned receptor; considered inactive
[26] = target: Muscarinic receptor M4 (Homo sapiens, UniProt P08173); experiment: Radio-ligand binding assay screen; settings: cloned receptor; considered inactive
[27] = target: Muscarinic receptor MS (Homo sapiens, UniProt P08912); experiment: Radio-ligand binding assay screen; settings: cloned receptor; considered inactive
Sequence of Muscarinic receptor MS (P08912 whole entry): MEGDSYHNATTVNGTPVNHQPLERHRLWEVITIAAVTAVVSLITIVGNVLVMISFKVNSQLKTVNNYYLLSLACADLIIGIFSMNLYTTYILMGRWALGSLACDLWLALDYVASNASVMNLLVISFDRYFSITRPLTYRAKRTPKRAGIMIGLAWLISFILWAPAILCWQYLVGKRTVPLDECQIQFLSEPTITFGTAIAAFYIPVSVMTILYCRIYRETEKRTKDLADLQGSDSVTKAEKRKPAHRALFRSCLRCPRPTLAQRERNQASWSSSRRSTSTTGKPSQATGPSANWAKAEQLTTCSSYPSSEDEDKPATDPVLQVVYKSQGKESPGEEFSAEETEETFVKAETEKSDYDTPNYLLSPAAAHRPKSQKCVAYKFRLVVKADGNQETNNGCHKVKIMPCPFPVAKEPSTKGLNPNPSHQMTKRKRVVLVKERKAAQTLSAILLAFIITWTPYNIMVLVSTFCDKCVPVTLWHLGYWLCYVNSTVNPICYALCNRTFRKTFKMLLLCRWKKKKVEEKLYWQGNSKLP

[28] = target: 5-HT1A (Homo sapiens, UniProt P08908); experiment: Radio-ligand binding assay screen; settings: cloned receptor; considered inactive
[29] = target: 5-HT1B (Homo sapiens, UniProt P28222); experiment: Radio-ligand binding assay screen; settings: cloned receptor; considered inactive
[30] = target: 5-HT1D (Homo sapiens, UniProt P28221); experiment: Radio-ligand binding assay screen; settings: cloned receptor; considered inactive
[31] = target: 5-HT1E (Homo sapiens, UniProt P28566); experiment: Radio-ligand binding assay screen; settings: cloned receptor; considered inactive
[32] = target: 5-HT2A (Homo sapiens, UniProt P28223); experiment: Radio-ligand binding assay screen; settings: cloned receptor; considered inactive
[33] = target: 5-HT2B (Homo sapiens, UniProt P41595); experiment: Radio-ligand binding assay screen; settings: cloned receptor; considered inactive
[34] = target: 5-HT2C (Homo sapiens, UniProt P28335); experiment: Radio-ligand binding assay screen; settings: cloned receptor; considered inactive
[35] = target: 5-HT3 (Homo sapiens, UniProt P46098); experiment: Radio-ligand binding assay screen; settings: cloned receptor; considered inactive
[36] = target: 5-HT5A (Homo sapiens, UniProt P47898); experiment: Radio-ligand binding assay screen; settings: cloned receptor; considered inactive
[37] = target: 5-HT6 (Homo sapiens, UniProt P50406); experiment: Radio-ligand binding assay screen; settings: cloned receptor; considered inactive
[38] = target: 5-HT7 (Homo sapiens, UniProt P34969); experiment: Radio-ligand binding assay screen; settings: cloned receptor; considered inactive
[39] = target: rSigma1 (Rattus norvegicus, UniProt Q9R0C9); experiment: Radio-ligand binding assay screen; settings: cloned receptor; considered inactive
[40] = target: rSigma2 (Rattus norvegicus, UniProt Q5U3Y7); experiment: Radio-ligand binding assay screen; settings: cloned receptor; considered inactive
Sequence of rSigma2 (Q5U3Y7 whole entry): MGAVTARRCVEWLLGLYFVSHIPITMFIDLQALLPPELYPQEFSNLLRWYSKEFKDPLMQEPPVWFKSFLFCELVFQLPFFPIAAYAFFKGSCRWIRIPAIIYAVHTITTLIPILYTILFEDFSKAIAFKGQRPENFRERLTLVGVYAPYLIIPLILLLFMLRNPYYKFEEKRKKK

[41] = target: T1, human GABAB receptor (Homo sapiens, UniProt Q9UBS5); settings: concentrations up to 100 μM, racemic mixtures
T1 sequence (Q9UBS5 15-961 limits assumed): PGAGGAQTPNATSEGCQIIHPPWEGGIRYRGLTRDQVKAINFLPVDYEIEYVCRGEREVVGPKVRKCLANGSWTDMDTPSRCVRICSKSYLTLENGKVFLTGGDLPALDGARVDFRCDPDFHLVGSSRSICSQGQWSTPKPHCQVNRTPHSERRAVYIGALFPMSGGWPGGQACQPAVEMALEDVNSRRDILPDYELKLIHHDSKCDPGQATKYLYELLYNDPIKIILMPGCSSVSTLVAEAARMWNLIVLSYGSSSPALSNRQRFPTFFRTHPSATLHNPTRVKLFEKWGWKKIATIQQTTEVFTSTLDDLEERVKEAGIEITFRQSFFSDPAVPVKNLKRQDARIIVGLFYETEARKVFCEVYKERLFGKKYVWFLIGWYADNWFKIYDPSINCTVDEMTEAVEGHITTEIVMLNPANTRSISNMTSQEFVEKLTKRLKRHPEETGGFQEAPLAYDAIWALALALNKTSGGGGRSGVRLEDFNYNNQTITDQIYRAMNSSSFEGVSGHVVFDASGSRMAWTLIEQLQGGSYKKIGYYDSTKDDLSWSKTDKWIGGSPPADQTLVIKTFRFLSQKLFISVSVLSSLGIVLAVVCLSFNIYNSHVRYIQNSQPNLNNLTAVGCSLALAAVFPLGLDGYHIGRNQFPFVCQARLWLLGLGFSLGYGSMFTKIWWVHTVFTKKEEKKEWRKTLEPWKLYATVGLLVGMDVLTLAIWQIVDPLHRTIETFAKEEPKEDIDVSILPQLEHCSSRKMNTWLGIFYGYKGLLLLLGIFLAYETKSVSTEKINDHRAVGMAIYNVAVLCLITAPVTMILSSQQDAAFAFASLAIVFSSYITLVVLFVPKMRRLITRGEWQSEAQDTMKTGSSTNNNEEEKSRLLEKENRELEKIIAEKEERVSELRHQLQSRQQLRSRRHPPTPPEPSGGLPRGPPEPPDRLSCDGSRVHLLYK
T1 sequence (O75899 42-941 partner): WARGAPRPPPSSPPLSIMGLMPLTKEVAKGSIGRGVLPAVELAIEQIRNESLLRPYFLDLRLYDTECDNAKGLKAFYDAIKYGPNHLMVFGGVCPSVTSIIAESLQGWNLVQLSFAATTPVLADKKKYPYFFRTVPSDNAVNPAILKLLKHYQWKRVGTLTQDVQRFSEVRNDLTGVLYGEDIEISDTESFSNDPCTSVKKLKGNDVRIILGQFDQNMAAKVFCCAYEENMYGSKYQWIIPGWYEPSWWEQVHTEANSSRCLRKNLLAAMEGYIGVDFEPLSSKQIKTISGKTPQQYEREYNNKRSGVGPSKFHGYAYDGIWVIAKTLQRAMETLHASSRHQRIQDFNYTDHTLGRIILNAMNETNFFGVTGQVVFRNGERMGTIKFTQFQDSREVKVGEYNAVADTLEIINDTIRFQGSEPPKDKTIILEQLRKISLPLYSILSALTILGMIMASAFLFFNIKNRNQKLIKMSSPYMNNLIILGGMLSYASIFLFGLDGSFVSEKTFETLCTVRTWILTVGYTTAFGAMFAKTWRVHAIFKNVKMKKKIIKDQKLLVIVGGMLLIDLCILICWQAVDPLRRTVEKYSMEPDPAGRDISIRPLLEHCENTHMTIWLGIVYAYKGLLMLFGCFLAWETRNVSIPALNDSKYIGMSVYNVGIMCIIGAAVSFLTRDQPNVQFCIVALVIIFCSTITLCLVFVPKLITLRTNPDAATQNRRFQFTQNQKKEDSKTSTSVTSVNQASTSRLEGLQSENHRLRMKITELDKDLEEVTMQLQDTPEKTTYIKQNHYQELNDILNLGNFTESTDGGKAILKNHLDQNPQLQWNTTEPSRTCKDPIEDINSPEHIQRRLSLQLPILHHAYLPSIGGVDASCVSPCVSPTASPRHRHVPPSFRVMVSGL

[42] = target: T1, human GABAB receptor; settings: read-out: GABAB EC50; agonist activity, HEK293/Cre-luc, ± standard error; ref [19]; cited from earlier work

Sequence of α1B adrenoreceptor (P35368 whole entry): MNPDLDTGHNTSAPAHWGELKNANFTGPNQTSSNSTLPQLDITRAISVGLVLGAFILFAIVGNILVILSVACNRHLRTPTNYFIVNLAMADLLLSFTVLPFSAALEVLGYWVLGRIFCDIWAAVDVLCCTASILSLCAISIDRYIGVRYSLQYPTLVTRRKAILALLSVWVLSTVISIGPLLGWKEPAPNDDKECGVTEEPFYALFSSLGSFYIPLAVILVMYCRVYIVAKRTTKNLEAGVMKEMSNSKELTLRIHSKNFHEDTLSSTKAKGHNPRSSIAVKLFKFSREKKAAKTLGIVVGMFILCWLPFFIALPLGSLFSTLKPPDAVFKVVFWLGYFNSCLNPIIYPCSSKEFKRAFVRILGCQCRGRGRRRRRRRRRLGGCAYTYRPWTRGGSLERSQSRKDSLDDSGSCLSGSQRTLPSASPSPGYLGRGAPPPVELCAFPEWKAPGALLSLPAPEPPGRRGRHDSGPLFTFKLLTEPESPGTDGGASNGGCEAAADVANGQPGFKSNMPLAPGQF

## CC(=O)c1ccc(C(O)C(F)(F)C(=O)C23CC4CC(CC(C4)C2)C3)cc1 (stereo not drawn) [Compound 3]
[1]
  inhibition, α1A: less than 30%
[2]
  inhibition, α1B: less than 30%
[3]
  inhibition, α1Δ: less than 30%
[4]
  inhibition, α2A: less than 30%
[5]
  inhibition, β1: less than 30%
[6]
  inhibition, β2: less than 30%
[7]
  inhibition, β3: less than 30%
[8]
  inhibition, DAT: less than 30%
[9]
  inhibition, NET: less than 30%
[10]
  inhibition, SERT: less than 30%
[11]
  inhibition, D1: less than 30%
[12]
  inhibition, D2: less than 30%
[13]
  inhibition, D3: less than 30%
[14]
  inhibition, D4: less than 30%
[15]
  inhibition, D5: less than 30%
[16]
  inhibition, DOR: less than 30%
[17]
  inhibition, KOR: less than 30%
[18]
  inhibition, MOR: less than 30%
[19]
  inhibition, H1: less than 30%
[20]
  inhibition, H2: less than 30%
[21]
  inhibition, H3: less than 30%
[22]
  inhibition, H4: less than 30%
[23]
  inhibition, M1: less than 30%
[24]
  inhibition, M2: less than 30%
[25]
  inhibition, M3: less than 30%
[26]
  inhibition, M4: less than 30%
[27]
  inhibition, MS: less than 30%
[28]
  inhibition, 5-HT1A: less than 30%
[29]
  inhibition, 5-HT1B: less than 30%
[30]
  inhibition, 5-HT1D: less than 30%
[31]
  inhibition, 5-HT1E: less than 30%
[32]
  inhibition, 5-HT2A: less than 30%
[33]
  inhibition, 5-HT2B: less than 30%
[34]
  inhibition, 5-HT2C: less than 30%
[35]
  inhibition, 5-HT3: less than 30%
[36]
  inhibition, 5-HT5A: less than 30%
[37]
  inhibition, 5-HT6: less than 30%
[38]
  inhibition, 5-HT7: less than 30%
[39]
  inhibition, rSigma1: less than 30%
[40]
  inhibition, rSigma2: less than 30%

## CCc1ccc(C(O)C(F)(F)C(=O)C23CC4CC(CC(C4)C2)C3)cc1 (stereo not drawn) [Compound 4]
[41]
  Agonist activity at the GABAB receptor (in words): inactive

## O=C(C12CC3CC(CC(C3)C1)C2)C(F)(F)C(O)/C=C/c1ccccc1 (stereo not drawn) [Compound 9]
[42]
  EC50: 40 ± 3.59 µM

## CC(C)(C)OC(=O)NC(c1ccccc1)C(F)(F)C(=O)c1ccc2ccccc2c1 (stereo not drawn) [Compound 11]
[1]
  inhibition, α1A: less than 30%
[2]
  inhibition, α1B: less than 30%
[3]
  inhibition, α1Δ: less than 30%
[4]
  inhibition, α2A: less than 30%
[5]
  inhibition, β1: less than 30%
[6]
  inhibition, β2: less than 30%
[7]
  inhibition, β3: less than 30%
[8]
  inhibition, DAT: less than 30%
[9]
  inhibition, NET: less than 30%
[10]
  inhibition, SERT: less than 30%
[11]
  inhibition, D1: less than 30%
[12]
  inhibition, D2: less than 30%
[13]
  inhibition, D3: less than 30%
[14]
  inhibition, D4: less than 30%
[15]
  inhibition, D5: less than 30%
[16]
  inhibition, DOR: less than 30%
[17]
  inhibition, KOR: less than 30%
[18]
  inhibition, MOR: less than 30%
[19]
  inhibition, H1: less than 30%
[20]
  inhibition, H2: less than 30%
[21]
  inhibition, H3: less than 30%
[22]
  inhibition, H4: less than 30%
[23]
  inhibition, M1: less than 30%
[24]
  inhibition, M2: less than 30%
[25]
  inhibition, M3: less than 30%
[26]
  inhibition, M4: less than 30%
[27]
  inhibition, MS: less than 30%
[28]
  inhibition, 5-HT1A: less than 30%
[29]
  inhibition, 5-HT1B: less than 30%
[30]
  inhibition, 5-HT1D: less than 30%
[31]
  inhibition, 5-HT1E: less than 30%
[32]
  inhibition, 5-HT2A: less than 30%
[33]
  inhibition, 5-HT2B: less than 30%
[34]
  inhibition, 5-HT2C: less than 30%
[35]
  inhibition, 5-HT3: less than 30%
[36]
  inhibition, 5-HT5A: less than 30%
[37]
  inhibition, 5-HT6: less than 30%
[38]
  inhibition, 5-HT7: less than 30%
[39]
  inhibition, rSigma1: less than 30%
[40]
  inhibition, rSigma2: less than 30%

## C/C=C/C=C/C(NCc1ccccc1)C(F)(F)C(=O)c1ccc2ccccc2c1 (stereo not drawn) [Compound 16]
[41]
  Agonist activity at the GABAB receptor (in words): inactive

## O=C(c1ccc(Cl)cc1)C(F)(F)C(NCc1ccccc1)c1ccccc1 (stereo not drawn) [Compound 17]
[41]
  Agonist activity at the GABAB receptor (in words): moderate activity
